Where “and” joins values, the source holds several entries; their conditions need not be identical. Equal values may be shown once.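 Briefly, cells in 96-well plates were exposed to five compound concentrations for 48 h, and endpoints were estimated by linear interpolation. The concentration for 50% growth inhibition is given as GI50. TGI marks complete inhibition of growth.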
Columns and labels:
Assay in all cases: inhibition of tumour cell growth, NCI panel, 48 h
SN12C renal = tested on: SN12C renal
PC-3 prostate = tested on: PC-3 prostate
HCT-15 colon = tested on: HCT-15 colon
MDA-MB-435 = tested on: MDA-MB-435
HCT-116 colon = tested on: HCT-116 colon
LOX IMVI melanoma = tested on: LOX IMVI melanoma
OVCAR-3 ovarian = tested on: OVCAR-3 ovarian

Structure (SMILES) | GI50 (SN12C renal) | TGI (SN12C renal) | GI50 (PC-3 prostate) | TGI (PC-3 prostate) | GI50 (HCT-15 colon) | TGI (HCT-15 colon) | GI50 (MDA-MB-435) | TGI (MDA-MB-435) | GI50 (HCT-116 colon) | TGI (HCT-116 colon) | GI50 (LOX IMVI melanoma) | TGI (LOX IMVI melanoma) | GI50 (OVCAR-3 ovarian) | TGI (OVCAR-3 ovarian)
COc1ccc(-c2cc(-c3cccc(NS(C)(=O)=O)c3)nc(N)c2C#N)cc1 | 298 nM | 25.1 µM | 97.1 nM | 14.2 µM | 108 nM | 19.4 µM | 0.0256 µM | 0.121 µM | 49.6 nM | 8.73 µM | 74.3 nM | > 37.5 µM | 29.8 nM | 0.115 µM
COc1ccc(-c2ccc(-c3ccc(C(=N)N)cn3)o2)cc1Cl | 1770 nM | 3.45 µM | 1320 nM | 2.68 µM | 1730 nM | 3.38 µM | 1.74 µM | 3.33 µM |  |  |  |  | 2240 nM | 4.79 µM
C=C(CNC(=O)c1ccccc1)c1ccc(C(=O)Nc2ccccc2N)cc1 | 1090 nM | 8.93 µM | 2950 nM | > 100 µM | 8140 nM | > 100 µM | 6.88 µM | > 100 µM | 1600 nM | 15.2 µM | 6100 nM | 73.2 µM | 11200 nM | > 100 µM
CCOc1nccc2c1nc(-c1nonc1N)n2CC | > 25000 nM | > 25 µM | > 25000 nM | > 25 µM | > 25000 nM | > 25 µM | > 25 µM | > 25 µM | > 25000 nM | > 25 µM | > 25000 nM | > 25 µM | > 25000 nM | > 25 µM
CSc1ccc(SC2c3ccc(C)cc3Oc3nc(N)c(C#N)c(N)c32)cc1 (centres undefined) | 1590 nM | 2.94 µM | 1640 nM | 3.22 µM | 1650 nM | 3.18 µM | 1.77 µM | 3.27 µM | 1920 nM | 3.65 µM | 1510 nM | 2.92 µM | 1740 nM | 3.13 µM
O=C(CCSc1ccnc2c(C(F)(F)F)cccc12)N/N=C/c1cc(Cl)c(Cl)cc1Cl | 18000 nM | 34.1 µM | 18000 nM | 36.7 µM | 20000 nM | 36.5 µM | 27.3 µM | 75.4 µM | 18500 nM | 32.5 µM | 17800 nM | 31.8 µM | 20000 nM | 44.5 µM
COc1cc(NC(=O)NCc2ccco2)ccc1-c1ccc(NC(=O)NCc2ccco2)cc1OC | 3170 nM | 23.3 µM | 3340 nM | 39.9 µM | 398 nM | > 100 µM | 4.14 µM | > 100 µM | 696 nM | > 100 µM | 1280 nM | > 100 µM | 2590 nM | 16.2 µM
NCCCN1CCN(CCCNc2nc3ccccc3c3[nH]c4ccccc4c23)CC1 |  | 1.05 µM | 437 nM | 2.98 µM | 436 nM | 7.83 µM | 0.651 µM | 2.41 µM | 337 nM | 2.7 µM | 409 nM | 1.81 µM | 659 nM | 4.58 µM
COc1ccc(Cn2cc3c(c2-c2cc(OC)c(OC)c(OC)c2)CCc2cnoc2-3)cc1N | 79.5 nM | > 100 µM | 75.1 nM | > 100 µM | 45.4 nM | > 100 µM | 0.0141 µM | 0.0384 µM | 45 nM | 2.84 µM | 64.1 nM | > 100 µM | 26 nM | 0.0631 µM
CCC1(NC(=O)c2cc(F)c(F)c(F)c2F)C(=O)NC(=O)N(C(C)C)C1=O (centres undefined) | 26400 nM | > 100 µM | 21600 nM | 63.6 µM | 8050 nM | > 100 µM | 15.8 µM | 36.2 µM | 22500 nM | 51.5 µM | 16700 nM | 54.5 µM | 23900 nM | 53.1 µM
Fc1ccc2c(c1)C1=C(CO2)C(c2ccc(Cl)cc2)NC(=S)N1 (centres undefined) | 17700 nM | 40.2 µM | 37200 nM | > 100 µM | 92600 nM | > 100 µM | 21.6 µM | 51.1 µM |  |  | 23000 nM | 61.7 µM | 14700 nM | 49.5 µM
CC(C)C[C@H](NC(=O)[C@@H](NC(=O)c1cccc(-c2ccccc2)n1)[C@@H](C)O)B(O)O | 15.1 nM and 19.3 nM | 0.413 µM | 23.6 nM | 1.94 µM | 17.6 nM and < 18.2 nM | 0.107 µM |  |  | 3.44 nM | 0.0142 µM and 0.0127 µM | 4.73 nM | 0.0181 µM and 0.0119 µM | 3.85 nM | 0.0191 µM and < 0.011 µM
COc1c(Cl)ccc2c(-c3nc4cc(Cl)c(F)cc4s3)cc(=O)oc12 | 23200 nM | > 90.3 µM | 4460 nM | 15.5 µM | 11700 nM | 51 µM | 25 µM | > 66.1 µM | 14100 nM | > 61.6 µM |  |  | 3940 nM | 22 µM
N#C/C(=C\c1c(-c2ccccc2)[nH]c2ccccc12)C(=O)c1ccccc1 | 5660 nM | > 100 µM | 3460 nM | > 100 µM | 3530 nM | > 100 µM | 0.37 µM | 4.14 µM | 5290 nM | > 100 µM | 7400 nM | > 100 µM | 2430 nM | 5.75 µM
COc1ccc2c(c1)c(-c1ccc(-c3cn(C)c4ccc(OC)cc34)[nH]1)cn2C | 2770 nM | 10.9 µM | 1580 nM | 5.71 µM | 1840 nM | 3.91 µM | 4.92 µM | 20.6 µM | 3040 nM | 12.7 µM | 2030 nM | 4.39 µM |  | 
O=S(=O)(NC1=NCCN1C(=S)SN1CCn2c1nsc2=S)c1ccccc1Cl | 31600 nM | > 100 µM |  |  | 18700 nM | 53 µM | 8.67 µM | 29.2 µM | 12200 nM | 28.2 µM | 16500 nM | 62.9 µM | 3890 nM | 17.7 µM

— PubChem BioAssay (NCI)
